Reference: US11834698B2, “Process for determining enzyme activity in a cell by activity-based reporter gene technology (ABRGT)” (INDIAN INSTITUTE OF SCIENCE EDUCATION AND RESEARCH, priority 2018, dated 2023)
Peptide text beside a SMILES is read from it. * marks the point of attachment. Cbz = O=C(OCc1ccccc1)*; CH2F = FC*

What was measured:
caspase-9 GFPspark = biological target: T1, caspase-9 GFPspark (Homo sapiens, UniProt P55211); assay: AbRGT FRET imaging / acceptor photobleaching, caspase-9 GFPspark in MCF-7 cells; assay type: cell-based
T1 construct: host or cells: MCF-7, HEK-293
T1 sequence (P55211 1-416): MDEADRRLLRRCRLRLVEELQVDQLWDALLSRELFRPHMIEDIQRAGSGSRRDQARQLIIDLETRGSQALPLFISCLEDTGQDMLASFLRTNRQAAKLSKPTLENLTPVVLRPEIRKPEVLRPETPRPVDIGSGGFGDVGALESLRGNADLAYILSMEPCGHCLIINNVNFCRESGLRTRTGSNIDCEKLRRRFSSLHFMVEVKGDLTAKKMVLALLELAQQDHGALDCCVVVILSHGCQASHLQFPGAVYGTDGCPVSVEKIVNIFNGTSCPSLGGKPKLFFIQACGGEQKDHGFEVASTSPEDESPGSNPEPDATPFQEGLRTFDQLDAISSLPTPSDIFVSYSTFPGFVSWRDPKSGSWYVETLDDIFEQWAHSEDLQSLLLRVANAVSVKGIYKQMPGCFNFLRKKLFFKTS
Description: (§1) FIG. 15 depicts confocal images of MCF-7 cells in GFP, FRET and Rh channel Caspase-7 GFPspark transfected MCF-7 cells were treated with STS (1 μM) for 6 h and labelled (a) (i) with probe 1 (1 μM) probe. Cells were pre-treated with (a) (ii) Z-VAD-FMK (50 μM) or (a) (iii) Q-VD-OPh (50 μM) pan-caspase inhibitors 1 h before the probe labelling. Caspase-9 GFPspark transfected MCF-7 cells were treated with STS (1 μM) for 4 h and labelled (b) (i) with probe 1 (1 μM) probe. Cells were pre-treated with (b) (ii) Z-VAD-FMK (50 μM) 1 h before probe labelling. Caspase-8 GFPspark overexpressing HEK-293 cells were treated with TRAIL (1 μg/ml) for 5 h and labelled (c) (i) with the probe 1. Cells were pre-treated with (c) (ii) Z-VAD-FMK (50 μM) 1 h before probe labelling.
FIG. 16 depicts specific detection of caspase-9 GFPspark in MCF-7 cells. Casp-9 GFPspark (1 μg) transfected MCF-7 cells were treated with STS (1 μM) for 4 h and labelled with the probe 1 (1 μM). Cells were fixed and the fluorescence signal was collected in GFP, FRET and Rh channels. The acceptor photobleaching experiment was carried out to confirm the FRET signal as described previously. Bar graph representing a rise in GFP intensity in ROI after rhodamine photobleaching was 63 a.u. as compared to the unbleached background, i.e., 8 a.u. FRET efficiency was calculated to be 30±1%.
(§2) Plasmids and transient transfection: GFPspark tagged plasmids; caspase-3 GFPspark tag (Cat: HG10050-ACG), caspase-7 GFPspark tag (HG10049-ACG), caspase-8 GFPspark (HG10078-ACG), caspase-9 GFPspark (HG11151-ACG) and cathepsin B GFPspark (HG10483-ACG) were procured from Sino Biological. For transfection, cells were seeded in a 6-well plate at a density of 0.4 million cells/well. At 60-70% confluency, cells were transiently transfected for 24 h at 37° C. with 1 μg of the GFPspark tagged plasmid DNA construct mixed with 5 μL of Lipofectamine 2000 (Invitrogen) according to the manufacturer's instructions. 24 h post-transfection, cells were visualized under the GFP filter for GFPspark expression under fluorescence microscope at 10× magnification.
(§3) Labelling of active caspases in apoptotic cells with FABP: After 24 h of transfection, cells were treated with STS (1 μM) drug or TRAIL (1 μg/ml) for apoptotic induction and incubated for 2, 4, 6 and 8 h at 37° C. in a humidified atmosphere of 5% CO2/95% air. Cells were gently scraped off from the surface at the end of apoptotic induction and centrifuged at 3000 rpm for 5 min. […] Slides were then imaged for GFP, FRET and rhodamine fluorescence signals under confocal microscopy. […]
(§4) Fluorescence imaging studies, FRET procedure: Images were collected on Zeiss LSM710 confocal microscope with 25 mW argon laser using Zen10 software. […]

caspase-8 GFPspark = biological target: T2, caspase-8 GFPspark (Homo sapiens, UniProt Q14790); assay: AbRGT FRET imaging / acceptor photobleaching, caspase-8 GFPspark in HEK-293 cells; assay type: cell-based
T2 construct: host or cells: HEK-293
T2 sequence (Q14790 217-374 limits assumed): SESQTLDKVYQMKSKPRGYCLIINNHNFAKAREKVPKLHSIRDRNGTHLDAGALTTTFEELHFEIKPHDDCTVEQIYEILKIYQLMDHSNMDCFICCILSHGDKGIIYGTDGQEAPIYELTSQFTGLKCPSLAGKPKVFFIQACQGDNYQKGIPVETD
T2 sequence (Q14790 385-479 limits assumed): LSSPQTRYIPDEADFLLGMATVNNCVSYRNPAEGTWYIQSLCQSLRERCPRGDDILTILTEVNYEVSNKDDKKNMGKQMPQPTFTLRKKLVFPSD
Description: as §1
FIG. 18 depicts specific detection of caspase-8 GFPspark in HEK-293 cells. Casp-8 GFPspark (1 μg) transfected HEK-293 cells were treated with TRAIL ([…]) for 6 h and labelled with the probe 1 (1 μM) for 2 h. Cells were washed, fixed and the fluorescence signal was collected in GFP, FRET and Rh channels. The acceptor photobleaching experiment was performed to confirm the FRET signal as described previously. The bar graph representing a rise in GFP intensity in ROI after rhodamine photobleaching was 82 a.u. as compared to the unbleached background, i.e., 11 a.u. The FRET efficiency was calculated to be 31±1%.
as §2, §3, §4

[1] = MCF-7, inhibitor 50 μM, STS 4 h
[2] = HEK-293, TRAIL, Z-VAD-FMK pre-treatment
[3] = MCF-7, STS 1 μM 4 h, probe 1 μM
[4] = HEK-293, TRAIL 6 h, probe 1 μM 2 h

Row | Compound | effect of inhibitor on signal in FRET channel (caspase-9 GFPspark; [1]) | effect of inhibitor on signal in Rh channel (caspase-9 GFPspark; [1]) | effect of inhibitor on signal in FRET channel (caspase-8 GFPspark; [2]) | effect of inhibitor on signal in Rh channel (caspase-8 GFPspark; [2]) | calculated FRET efficiency (caspase-9 GFPspark; [3]) [%] | rise in GFP intensity in ROI after rhodamine photobleaching (caspase-9 GFPspark; [3]) [a.u.] | calculated FRET efficiency (caspase-8 GFPspark; [4]) [%] | rise in GFP intensity in ROI after rhodamine photobleaching (caspase-8 GFPspark; [4]) [a.u.]
1 | COC(=O)C[C@H](NC(=O)[C@H](C)NC(=O)[C@@H](NC(=O)OCc1ccccc1)C(C)C)C(=O)CF [Z-VAD-FMK] (Cbz-Val-Ala-Asp(OMe)-CH2F) | completely abolished | completely abolished | abolished | abolished |  |  |  | 
2 | Rhodamine-VAD-fluoromethyl ketone [probe 1] |  |  |  |  | 30±1 | 63 | 31±1 | 82
